{
  "source": "paper PMC9822133",
  "about": "“Design, Synthesis and Antiproliferative Evaluation of Bis-Indole Derivatives with a Phenyl Linker: Focus on Autophagy” (Molecules, 2022)",
  "key": {"MDA-MB-231": {"test_system": "MDA-MB-231", "assay": "MTT screening assay, MDA-MB-231", "format": "cell-based", "conditions": "Homo sapiens, 72 h incubation", "from_the_text": "The ability of newly synthesized indole phytoalexins to suppress cell proliferation was screened in vitro on eight cancer cell lines including human colorectal carcinoma (Caco-2 and HCT116), human cervical cancer (HeLa), human breast adenocarcinoma (MCF-7, MDA-MB-231), human alveolar adenocarcinoma (A549) and human leukemic T cell lymphoma (Jurkat), and two non-cancer cell lines (MCF-10A, Cos-7).\nThe cell lines used for this study were Caco-2 (human colorectal adenocarcinoma cell line, American Type Culture Collection, Manassas, VA, USA (ATCC)), HCT116 (human colorectal carcinoma cells European Collection of Authenticated Cell Cultures, Salisbury, UK (ECACC)), HeLa (human cervical tumor cells, ECACC), MCF-7 (human breast tumor cells, ECACC), MDA-MB-231 (human breast tumor cells, ATCC), A549 (human lung carcinoma cells, ATCC), BLM (human melanoma lung metastases, a gift from prof. K. Smetana, Institute of Anatomy, Charles University in Prague), Jurkat (human leukemia cell line, ECACC), Cos-7 (immortalized monkey kidney fibroblasts, ATCC) and MCF-10A (human mammary epithelial cells, ATCC). Caco-2, MCF-7, BLM, Cos-7 and A549 cells were cultured in Dulbecco’s Modified Eagle’s Medium (DMEM) with high glucose and sodium pyruvate (GE Healthcare, Piscataway, NJ, USA); HCT116 lines, HeLa, MDA-MB-231 and Jurkat were cultured in RPMI-1640 medium; and MCF10A cells were cultured in high glucose DMEM/F12 (Dulbecco’s Modified Eagle’s Medium F12). The media were enriched with 10% fetal bovine serum (FBS) and a 1% solution of a mixture of antibiotics and antimycotics 1× HyClone™ (GE Healthcare, Chicago, IL, USA). DMEM/F12 medium was supplemented with epidermal growth factor (EGF) (20 ng/mL final), hydrocortisone (0.5 μg/mL final) and insulin (10 μg/mL final) (Sigma-Aldrich Chemie, Steinheim, Germany). The cells were placed in an incubator at 37 °C with humidified air containing 5% CO2.\nThe MTT assay is a colorimetric method used to quantify the metabolic activity of cells. MTT (3-(4,5-di-methylthiazol-2-yl)2,5-diphenyltetrazolium bromide) (Sigma-Aldrich Chemie, Steinheim, Germany) is reduced by oxidoreductases in the cytosol of cells to light-absorbing formazan, the presence of which can be measured spectrophotometrically and determines the half-maximal inhibitory concentration (IC50). A549 cells were seeded in […] culture plates at a density of 5 × 10^3 per well. […]\nWe also incubated the cells with chloroquine at concentrations of 5–20 µM, which was added 1 h before the addition of the test substance, and cisplatin at concentrations of 3–10 µM. […] After 24 h, the absorbance was measured at a wavelength of 540 nm using an automated Cytation™ 3 Cell Imaging Multi-Mode Reader (Biotek, Winooski, VT, USA). […]"}, "p62/SQSTM1": {"test_system": "p62/SQSTM1", "assay": "Western blot, p62", "format": "cell-based, human", "conditions": "A549, 24, 48, 72 h, p < 0.001 vs DMSO", "from_the_text": "Protein p62, also known as sequestosome 1, is a multifunctional, classic autophagy receptor, considered together with LC3AB as an important marker of ongoing autophagic flux. It is involved in cell signaling, metabolism, oxidative stress and cell death. Its main function is the degradation of misfolded proteins through the ubiquitin–proteasome system (UPS) and autophagy, thereby maintaining intracellular proteostasis. P62 binds the autophagosomal membrane protein LC3 and brings p62-containing cytoplasmic contents to the autophagosome for degradation. […] This protein is normally degraded during autophagy after interaction with LC3 II [26]. On the other hand, accumulation of p62 has also been cited in cancer cells exposed to a variety of potential anticancer compounds [27, 28, 29].\nA549 cells were seeded on Petri dishes (55 cm^2) at a density of 1 × 10^6 and allowed to culture in the medium. After 24 h, the test substance was added, and the cells were incubated for 24, 48 and 72 h. […] After lysis, the cells were sonicated, and the protein concentration in the samples was quantified using the Pierce® BCA Protein Assay Kit (Thermo Scientific, Rockford, IL, USA) and measured by an automated Cytation™ 3 Cell Imaging Multi-Mode Reader (Biotek) at a wavelength of 570 nm. […]"}},
  "data": [
    {"smiles": "CC(C)(C)OC(=O)n1cc(CNC(=O)Nc2ccc(NC(=O)NCc3cn(C(=O)OC(C)(C)C)c4ccccc34)cc2)c2ccccc21", "note": "[Compound 49, N,N′-(1,4-phenylene)bis{N′-[1-(tert-butoxycarbonyl)indol-3-yl]methyl (urea)}]", "values": [
      {"measurement": "IC50", "setting": "MDA-MB-231", "result": "> 100", "unit": "µM"},
      {"measurement": "p62 expression", "setting": "p62/SQSTM1", "result": "significant increase"}
    ]}
  ]
}
